In the NIST ThermoML archive (doi:10.1016/j.jct.2008.10.010):

Experiments:
[1] = refractive index (Na D-line) (dimensionless); conditions: 298.15 K; 101.33 kPa; Liquid; Standard Abbe refractometry
[2] = molar heat capacity at constant pressure; conditions: 101.33 kPa, Liquid, Small sample (50 mg) DSC
[3] = 298.15 K; 101.33 kPa; Liquid; Pycnometric method

OC1CCCC1 [cyclopentanol]
Conditions | mass density [kg/m3] | refractive index
[1] | – | 1.4512
[3] | 942.86 | –

[2]
Conditions | molar heat capacity at constant pressure [J/K/mol]
284.16 K | 170.24
285.15 K | 170.99
286.16 K | 171.81
287.14 K | 172.53
288.15 K | 173.41
289.16 K | 174.28
290.14 K | 175.01
291.15 K | 175.87
292.16 K | 176.75
293.14 K | 177.58
294.15 K | 178.43
295.16 K | 179.3
296.14 K | 180.09
297.15 K | 180.97
298.14 K | 181.8
298.15 K | 181.82
298.16 K | 181.83
299.14 K | 182.68
300.15 K | 183.51
301.16 K | 184.44
302.14 K | 185.33
303.15 K | 186.22
304.16 K | 187.09
305.14 K | 188.03
306.15 K | 188.94
307.16 K | 189.83
308.14 K | 190.71
309.15 K | 191.61
310.16 K | 192.53
311.14 K | 193.42
312.15 K | 194.35
313.16 K | 195.28
314.14 K | 196.15
315.15 K | 197.1
316.16 K | 198.01
317.14 K | 198.91
318.15 K | 199.88
319.15 K | 200.81
320.14 K | 201.63
321.15 K | 202.63
322.15 K | 203.57
323.14 K | 204.44
324.15 K | 205.36
325.15 K | 206.28
326.16 K | 207.24
327.15 K | 208.09
328.15 K | 209.05
329.14 K | 209.96
330.14 K | 210.87
331.15 K | 211.73
332.14 K | 212.64
333.14 K | 213.55
334.15 K | 214.51
335.16 K | 215.32
336.14 K | 216.18
337.15 K | 217.08
338.16 K | 218.05
339.14 K | 218.88
340.15 K | 219.81
341.16 K | 220.6
342.14 K | 221.48
343.15 K | 222.33
344.16 K | 223.27
345.14 K | 224.05
346.15 K | 224.85
347.16 K | 225.68
348.14 K | 226.51
349.15 K | 227.32
350.15 K | 228.13
351.14 K | 228.9
352.15 K | 229.66
353.15 K | 230.44
